In patent publication US20130259884A1, “PEPTIDES” ([…] SL, priority 2010, published 2013):
Where a SMILES comes first, the peptide text is derived from it.

Assay: Water solubility of peptides when preparing stock solutions
Format: physicochemical
Conditions: stock solution in sterile distilled water or 100% DMSO; read-out: solubility of peptide (water soluble or water insoluble, dissolved in DMSO)
Outline: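 Water-soluble peptides from water stocks and insoluble ones from 100% DMSO stocks (50 mg/ml), each diluted to 2 mg/ml in water then into media. Added singly or as pools to 350,000 PBMC in anti-IL-4 ELISPOT wells at 10 μg/ml final per peptide. Identically diluted media-only controls.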

SMILES	solubility [µg/mL]
CC(C)C[C@H](NC(=O)[C@H](Cc1ccccc1)NC(=O)[C@H](CO)NC(=O)[C@H](CC(N)=O)NC(=O)[C@H](CCC(=O)O)NC(=O)CNC(=O)[C@@H](NC(=O)[C@H](CO)NC(=O)[C@H](Cc1ccc(O)cc1)NC(=O)[C@H](Cc1c[nH]c2ccccc12)NC(=O)[C@H](CCCCN)NC(=O)[C@H](Cc1c[nH]cn1)NC(=O)[C@@H](N)CC(=O)O)C(C)C)C(=O)N[C@@H](CC(=O)O)C(=O)N[C@@H](Cc1ccccc1)C(=O)O [Peptide L10-2.01, DHKWYSVGENSFLDF] (H-DHKWYSVGENSFLDF-OH)	> 2500
CC[C@H](C)[C@H](NC(=O)[C@H](CC(=O)O)NC(=O)[C@H](CC(=O)O)NC(=O)[C@H](CO)NC(=O)[C@@H](NC(=O)[C@H](CCCCN)NC(=O)[C@H](CCC(N)=O)NC(=O)[C@@H](N)CCCCN)C(C)C)C(=O)N[C@H](C(=O)N[C@@H](Cc1ccc(O)cc1)C(=O)N[C@H](C(=O)N[C@@H](C)C(=O)N[C@H](C(=O)N[C@@H](C)C(=O)N[C@H](C(=O)O)[C@@H](C)O)[C@@H](C)O)C(C)C)[C@@H](C)O [Peptide L10-3, KQKVSDDITYVATAT] (H-KQKVSDDITYVATAT-OH)	> 2500
